Results from PMC3823830 (Anesthesiology, 2013).
Entries after “also recorded” stand apart in the source; their conditions may differ. Read-outs that look alike come from different tables or passages of the source.

Assays:
[1] = Compartmental pharmacokinetic modeling of morphine and morphine glucuronides; type: in vivo, human; conditions: for Delay time (appearance of the metabolite in plasma): set at 0.01 h for M-3-G when not estimable; for VSS of morphine glucuronide: fixed at 0.2 × body mass (kg); for VC (central volume): constrained to be the same in both sessions; for Vd / clearance: both, human, plasma, intravenous
[2] = cited from earlier work
P-gp [3] = conditions: humans; cited from earlier work
P-gp [4] = conditions: bovine brain capillary cell P-gp-mediated transport; cited from earlier work
P-gp [5] = conditions: rats; cited from earlier work
healthy volunteers [6] = conditions: morphine 0.1 mg/kg
healthy volunteers [7] = conditions: average; cyclosporine did not change this delay
healthy volunteers [8] = assay: Pharmacokinetic-pharmacodynamic effect-site modeling of miosis; conditions: for Predicted maximum biophase concentration: model-predicted
clinical = conditions: both, human, plasma, iv, 0.1 mg/kg
P-gp [9] = conditions: P-gp-overexpressing cells; cited from earlier work
[10] = tested on: mdr1a (murine MDR1 homologue); conditions: cited from earlier work
P-gp [11] = conditions: mouse, in vivo; cited from earlier work
human P-gp = conditions: cited from earlier work
P-gp [12] = conditions: cited from earlier work
[13] = with cyclosporine, median (range)

CN1CC[C@]23c4c5ccc(O[C@@H]6O[C@H](C(=O)O)[C@@H](O)[C@H](O)[C@H]6O)c4O[C@H]2[C@@H](O)C=C[C@H]3[C@H]1C5 [Morphine-3-glucuronide, morphine-3-glucuronide]
ClE (glucuronide elimination clearance) ([1]; control, median (range)): 8.4 (5.3 to 12.4) L/h
Fraction eliminated (percent of morphine dose eliminated as the glucuronide metabolite) ([1]; control, median (range)): approximately 40%
Fraction eliminated (percent of morphine dose eliminated as the glucuronide metabolite) ([1]; control, median (range), […]): 40.5 (27 to 52) %
Delay time (appearance of the metabolite in plasma) ([1]; control, median (range)): 0.010 (0.003 to 0.09) h
CLEM-3-G (elimination clearance represented by metabolism to morphine-glucuronide) ([1]; control, CLE × percent eliminated as glucuronide, mean ± SD): 39.0 ± 14.8 L/h
VSS of morphine glucuronide ([1]; control, mean ± SD): 15.0 ± 2.5 L
Decrease in median glucuronide elimination clearance by cyclosporine ([1]; cyclosporine vs control): more than 10%
ClE (glucuronide elimination clearance) [1, 13]: 7.5 (3.7 to 14.0) ^@ L/h
Fraction eliminated (percent of morphine dose eliminated as the glucuronide metabolite) [1, 13]: approximately 40%
Fraction eliminated (percent of morphine dose eliminated as the glucuronide metabolite) ([1]; with cyclosporine, median (range), […]): 43.4 (21 to 73) %
Delay time (appearance of the metabolite in plasma) [1, 13]: 0.022 (0.003 to 0.13) ^& h
CLEM-3-G (elimination clearance represented by metabolism to morphine-glucuronide) ([1]; with cyclosporine, CLE × percent eliminated as glucuronide, mean ± SD): 35.3 ± 13.4 L/h
VSS of morphine glucuronide ([1]; with cyclosporine, mean ± SD): 15.0 ± 2.5 L
Clinical effect [2]: no clinical effect
Time of peak plasma concentration after the end of the morphine infusion (control): 0.2 h
Plasma AUC ratio (morphine glucuronide/morphine) (control, mean ± SD): 5.0 ± 1.2
Plasma Tmax (control, relative to start of morphine infusion, mean ± SD): 1.2 ± 0.2 h
Delay of time to peak plasma concentration by cyclosporine (cyclosporine vs control): 0.4 h
Plasma AUC ratio (morphine glucuronide/morphine) (with cyclosporine, mean ± SD): 5.3 ± 1.1

C/C=C/C[C@@H](C)C(=O)[C@H]1C(=O)N[C@@H](C(C)C)C(=O)N(C)CC(=O)N(C)[C@@H](CC(C)C)C(=O)N[C@@H](C(C)C)C(=O)N(C)[C@@H](CC(C)C)C(=O)N[C@@H](C)C(=O)N[C@H](C)C(=O)N(C)[C@@H](CC(C)C)C(=O)N(C)[C@@H](CC(C)C)C(=O)N(C)[C@@H](C(C)C)C(=O)N1C [PSC833]
Effect on morphine-related respiratory depression (and drowsiness) (P-gp [3]): did not significantly change; also recorded: no effect

COc1cc2c(cc1OC)CN(CCc1ccc(NC(=O)c3cccc4c(=O)c5cccc(OC)c5[nH]c34)cc1)CC2 [GF120918]
Effect on basolateral to apical flux of morphine (P-gp [4]): abolished
Increase in morphine antinociception (P-gp [5]): approximately 3 fold

CN1CC[C@]23c4c5ccc(O)c4O[C@H]2[C@@H](O)C=C[C@H]3[C@H]1C5 [Morphine]
VC (central volume) ([1]; control, mean ± SD): 21.5 ± 4.7 L
Average peripheral volume (VP) during cyclosporine treatment less than control ([1]; cyclosporine vs control, not statistically significant): approximately 11%
VC (central volume) ([1]; with cyclosporine, mean ± SD): 21.5 ± 4.7 L
Analgesic effect (thermal stimulus) (healthy volunteers [6]): negligible analgesic effects
Time of maximum miosis after the end of the morphine infusion (healthy volunteers [7]): 1.6 h
Predicted maximum biophase concentration (healthy volunteers [8]; after cyclosporine): 41 ± 13 ng/mL
Maximum calculated effect site morphine concentration (healthy volunteers [8]; control (abstract)): 7.6 ± 2.9 ng/mL
Predicted maximum biophase concentration (healthy volunteers [8]; control): 27 ± 11 ng/mL
Maximum calculated effect site morphine concentration (healthy volunteers [8]; with cyclosporine (abstract)): 11.5 ± 3.7 ng/mL

CN1CC[C@]23c4c5ccc(O)c4O[C@H]2[C@@H](O[C@@H]2O[C@H](C(=O)O)[C@@H](O)[C@H](O)[C@H]2O)C=C[C@H]3[C@H]1C5 [Morphine-6-glucuronide, morphine-6-glucuronide]
AUC(0-inf) (clinical): 117 ± 32 ng·h/mL
Cmax (clinical): 24.9 ± 5.2 ng/mL
half-life (clinical): 2.8 ± 1.2 h
Vd [1]: 15 ± 2.5 L
Vd ([1]; 0.1 mg/kg): 15 ± 2.5 L
clearance ([1]; 0.1 mg/kg, CLEM-6-G (elimination clearance represented by metabolism to morphine-glucuronide), control, CLE × percent eliminated as glucuronide, mean ± SD): 138 mL/min
clearance ([1]; 0.1 mg/kg, ClE (glucuronide elimination clearance), control, median (range)): 160 mL/min
clearance ([1]; CLEM-6-G (elimination clearance represented by metabolism to morphine-glucuronide), with cyclosporine, CLE × percent eliminated as glucuronide, mean ± SD): 103 mL/min
Fraction eliminated (percent of morphine dose eliminated as the glucuronide metabolite) ([1]; control, median (range), listed as Morphine-6- glucuronide): 8.1 (4.9 to 12.5) %
Fraction eliminated (percent of morphine dose eliminated as the glucuronide metabolite) ([1]; control, median (range), listed as morphine-6-glucuronide): 8.1%
Delay time (appearance of the metabolite in plasma) ([1]; control, median (range)): 0.11 (0.04 to 0.34) h
Decrease in median glucuronide elimination clearance by cyclosporine ([1]; cyclosporine vs control): ~25%
Fraction eliminated (percent of morphine dose eliminated as the glucuronide metabolite) ([1]; with cyclosporine, median (range), listed as Morphine-6- glucuronide): 7.4 (3.3 to 16.6) ^& %
Fraction eliminated (percent of morphine dose eliminated as the glucuronide metabolite) ([1]; with cyclosporine, median (range), listed as morphine-6-glucuronide): 7.4%
Delay time (appearance of the metabolite in plasma) [1, 13]: 0.18 (0.06 to 0.37) h
Plasma AUC ratio (morphine glucuronide/morphine) (control, mean ± SD): 0.88 ± 0.20
Plasma AUC ratio (morphine glucuronide/morphine) (with cyclosporine, mean ± SD): 0.85 ± 0.20

CN(C)C(=O)C(CCN1CCC(O)(c2ccc(Cl)cc2)CC1)(c1ccccc1)c1ccccc1 [loperamide]
Efflux ratio (P-gp [9]): > 20%
Transport ratio in mdr1-knockout mice vs control [10]: 10.4

C=C[C@H]1C[N@@]2CC[C@H]1C[C@@H]2[C@@H](O)c1ccnc2ccc(OC)cc12 [Quinidine]
IC50 (P-gp [11]): 36 µM
IC50 (human P-gp): 34 µM
IC50 (P-gp [12]): 3 µM
